Bounds are passed on as bounds.

This test deals with Saccharomyces cerevisiae ABC16-Green Monster. As to conditions: 18 h; 30 °C; YPD. In short, it runs like this:
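Drug-sensitive S. cerevisiae ABC16-Green Monster cells were grown to log phase in YPD and dispensed at 200 µl per well into 96-well plates. Cultures were treated in biological duplicate with eight 1:2 compound dilutions (final 0.1–150 μM), alongside untreated cultures, for 18 h at 30 °C, and OD600 was read at 0 h and 18 h. IC50 was obtained by variable-slope nonlinear regression of log(inhibitor) versus response in GraphPad Prism, using background-subtracted readings.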

In the case of `O=c1c2ccccc2[nH]c2ccc(I)cc12` [GNF-Pf-4577], the IC50 growth inhibition was greater than 150 µM.
In the case of `CN(Cc1nc(N)c2c3c(sc2n1)CCCC3)Cc1cccs1` it was 107 µM; in that of `Cc1cc(=O)nc(N/N=C/c2cc(C)n(CC(F)(F)F)c2C)[nH]1`, 81.9 µM.
`C=CC1(C)CC(=O)C2(O)C(C)(O1)C(OC(C)=O)C(O)C1C(C)(C)CCC(O)C12C` (centres undefined) [Forskolin] came in with an IC50 growth inhibition greater than 75 µM.
`CC1COC(Cn2cncn2)(c2ccc(Oc3ccc(Cl)cc3)cc2Cl)O1` (centres undefined) [Difenoconazole] displayed an IC50 growth inhibition of 3.17 µM.
Under `COC(=O)C1=C(C)NC(C)=C(C(=O)OC(C)C)C1c1cccc2nonc12` (centres undefined) [Israpidine] stands greater than 150 µM.
Under `N=C(N)Nc1ccc(-c2ccc(-c3ccc(NC(=N)N)cc3Cl)o2)c(Cl)c1` stands 44.5 µM; under `OC1=C2C(=Nc3ccccc3SC2c2ccco2)c2ccccc21` (centres undefined) [GNF-Pf-4283], 11 µM.
Under `CC1(C)c2nc(-c3ccc(F)cc3)c(Nc3ccc(Cl)cc3)n2CCN1C(=O)CN` [GNF179] stands 38 µM.
For `CCC(C(C)O)n1ncn(-c2ccc(N3CCN(c4ccc(OCC5COC(Cn6cncn6)(c6ccc(F)cc6F)C5)cc4)CC3)cc2)c1=O` (centres undefined) [Posaconazole], the IC50 growth inhibition worked out at 0.71 µM.
`OCCNc1nc(Oc2ccc(-c3ccccc3)cc2)nc2ccccc12` had an IC50 growth inhibition of 21.7 µM.
Under `COC1=CC(=O)CC(C)C12Oc1c(Cl)c(OC)cc(OC)c1C2=O` (centres undefined) [Griseofulvin] stands greater than 75 µM; under `Cc1ccc2nc(-c3ccc(N(C)C)cc3)[nH]c2c1`, 11.8 µM.
In the case of `CN1CCC(NCc2cccc(-c3ccc(S(=O)(=O)NCc4ccccc4)cc3)c2)CC1` it was 50.8 µM.

The record behind these values is the supplement of paper PMC8837787.
